Experimental data as given in patent US20120028897A1, “METHODS AND COMPOSITIONS FOR THE TREATMENT OF FLUID RETENTION DISORDERS” (priority 2008, published 2012).

Target: T1, GC-C receptor, GC-C-expressing T84 cell line (Homo sapiens, UniProt P25092)
T1 construct: measuring cyclic GMP synthesis in the GC-C-expressing T84 cell line; endogenous in cells; host or cells: T84 colon carcinoma cells
Assay: T84 cell cyclic GMP bioassay
Format: cell-based
Procedure: Bioassay of huUgnA-like activity. The concentration of huUgnA-like bioactivity in infused peptide solutions and in urine collected during experiments was measured using a T84 cell-based bioassay, as described previously. T84 cells are a colon carcinoma cell line that increases cyclic GMP production in response to GC-C receptor agonists such as Ugn, Gn and ST core peptide. T84 cells were grown to near confluence in 12 well culture clusters, and then incubated with unknowns or standard concentrations of huUgnA. Standards or urine samples were diluted into bioassay medium (1 mM 3-isobutyl-1-methylxanthine, 0.03 mM phenol red, 137 mM NaCl, 5.4 mM KCl, 0.25 mM Na2HPO4, 0.44 mM KH2PO4, 1.3 mM CaCl2, 1.0 mM MgSO4, 4.2 mM NaHCO3, 10 mM HEPES buffered at pH 7.0) and the pH was adjusted to 7.0, if required, using the phenol red indicator dye as a guide. This pH adjustment was necessary, as it is well-established that the response of T84 cells to UGn is highly pH dependent. The broad spectrum phosphodiesterase inhibitor (isobutyl methylxanthine) was included to prevent degradation of cyclic GMP. After 30 min, the cells were lysed and cyclic GMP levels measured by radioimmunoassay (Biomedical Technologies Inc Stoughton Mass.). Standards and unknowns were assayed in triplicate. […]

T1 sequence (P25092 24-1073): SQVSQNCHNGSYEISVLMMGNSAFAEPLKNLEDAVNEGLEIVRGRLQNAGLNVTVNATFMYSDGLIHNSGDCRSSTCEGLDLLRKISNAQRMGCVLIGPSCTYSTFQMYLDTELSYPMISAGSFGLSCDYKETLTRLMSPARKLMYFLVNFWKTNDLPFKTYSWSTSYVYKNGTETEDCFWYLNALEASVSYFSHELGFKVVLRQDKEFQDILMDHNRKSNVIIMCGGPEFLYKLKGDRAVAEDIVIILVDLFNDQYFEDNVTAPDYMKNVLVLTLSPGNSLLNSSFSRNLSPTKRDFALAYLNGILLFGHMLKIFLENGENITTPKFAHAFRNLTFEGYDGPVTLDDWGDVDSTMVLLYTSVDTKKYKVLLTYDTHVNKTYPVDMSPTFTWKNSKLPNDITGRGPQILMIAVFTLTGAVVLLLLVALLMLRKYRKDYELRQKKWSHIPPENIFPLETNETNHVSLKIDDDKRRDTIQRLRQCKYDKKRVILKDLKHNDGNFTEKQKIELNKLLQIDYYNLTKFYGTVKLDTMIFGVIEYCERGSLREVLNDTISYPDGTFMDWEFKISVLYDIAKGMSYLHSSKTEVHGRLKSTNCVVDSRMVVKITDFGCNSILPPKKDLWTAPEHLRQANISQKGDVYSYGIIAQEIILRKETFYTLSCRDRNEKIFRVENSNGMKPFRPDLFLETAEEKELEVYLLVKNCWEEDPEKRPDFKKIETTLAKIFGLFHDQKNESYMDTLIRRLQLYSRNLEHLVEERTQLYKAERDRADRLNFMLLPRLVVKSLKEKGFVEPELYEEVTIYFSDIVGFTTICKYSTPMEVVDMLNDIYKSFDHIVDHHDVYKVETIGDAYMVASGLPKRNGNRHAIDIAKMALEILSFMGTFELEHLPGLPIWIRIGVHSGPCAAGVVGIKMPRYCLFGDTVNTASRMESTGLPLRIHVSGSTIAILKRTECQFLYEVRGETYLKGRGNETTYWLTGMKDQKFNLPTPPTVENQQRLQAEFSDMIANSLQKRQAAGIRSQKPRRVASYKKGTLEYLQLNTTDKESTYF

SMILES: CC(C)C[C@H](NC(=O)[C@@H]1CSSC[C@@H]2NC(=O)[C@H](CC(C)C)NC(=O)[C@H](CCC(=O)O)NC(=O)[C@@H](NC(=O)[C@H](CC(=O)O)NC(=O)[C@H](CC(=O)O)NC(=O)[C@@H](N)CC(N)=O)CSSC[C@H](NC(=O)[C@H](C)NC(=O)[C@H](C(C)C)NC(=O)[C@H](CC(N)=O)NC(=O)[C@H](C(C)C)NC2=O)C(=O)N[C@@H]([C@@H](C)O)C(=O)NCC(=O)N1)C(=O)O (single isomer, unassigned) [huUgnB, Asn Asp Asp Cys Glu Leu Cys Val Asn Val Ala Cys Thr Gly Cys Leu]
- T84 cell cGMP response on co-application of huUgnA and B (25 nM huUgnA with 180 nM huUgnB (FIG. 2B)): not different from those evoked by huUgnA alone
- potency in activating cyclic GMP synthesis, fold less potent than the A isoform (GC-C-expressing T84 cell line): more than 100 fold
